One may read the EC50 as the concentration needed to bring the measured effect to its halfway point.

Where two headings read alike, the source gives them in different places. Starred links: 1 amine or outer side, 2 acyl side, 3 side chain; linkers in the order of their positions; H or OH if unused. Non-standard residues stand in square brackets, D forms with d. Residues, ends and D or L forms follow the SMILES beside them. ξ: configuration not given here. X12 = COc1ccc(COC(C)(C)C[C@@H](C(=O)[*:2])N(C)[*:1])cc1; X8 = CN([C@@H](CC(C)(C)OCc1ccccc1)C(=O)[*:2])[*:1]; MeBmt = C/C=C/C[C@@H](C)[C@@H](O)[C@H](NC)C(=O)O; X3 = CN([C@H](SCCCN1CCOCC1)C(=O)[*:2])[*:1]; X1 = CCN(CC)CCCS[C@H](C(=O)[*:2])N(C)[*:1]; X7 = CCN(CC)CCS[C@@H](C(=O)[*:2])N(C)[*:1]; X13 = CCOCOC(C)(C)CC(C(=O)[*:2])N(C)[*:1]; X2 = CCN(CC)CCS[C@H](C(=O)[*:2])N(C)[*:1]; X4 = CC=CCC(C)C(O)C(C(=O)[*:2])N(C)[*:1]; X9 = CN(C(SCCCN1CCOCC1)C(=O)[*:2])[*:1]; NMeIle(3ξ) = CCC(C)[C@H](NC)C(=O)O; NMeL = CN[CH](CC(C)C)C(=O)O; NMeV = CN[CH](C(=O)O)C(C)C; Abu = CC[CH](N)C(=O)O

The test system of this assay is HCV replicon in cell line ET (luc-ubi-neo/ET), Huh7 human hepatoma cell line. Kind of assay: HCV subgenomic replicon assay (luciferase end point). In kind it is cell-based. Particulars: read-out: Antiviral activity EC50.
Setting [1] is: Hepatitis C virus, Huh-7, Table 11, HCV replicon.
Setting [2] is: Hepatitis C virus, Huh-7, Table 15, HCV replicon.
[3] abbreviates: Hepatitis C virus, Huh-7, Table 13, HCV replicon.

In the case of `C/C=C/C[C@@H](C)[C@@H](O)[C@H]1C(=O)N[C@@H](CC)C(=O)N(C)[C@H](SCCCN2CCOCC2)C(=O)N(C)[C@@H](CC(C)(C)OCc2ccccc2)C(=O)N[C@@H](C(C)C)C(=O)N(C)[C@@H](CC(C)C)C(=O)N[C@@H](C)C(=O)N[C@H](C)C(=O)N(C)[C@@H](CC(C)C)C(=O)N(C)[C@@H](CC(C)C)C(=O)N(C)[C@@H](C(C)C)C(=O)N1C` [[(R)-(3-(N-Morpholino)propylthio-Sar]-3-[(γ-benzyloxy)-N-MeLeu]-4-cyclosporin] (cyclo(A[dA][NMeL][NMeL][NMeV][MeBmt][Abu][X3][X8]V[NMeL])), the 50% effective concentration (EC50) (Table 11, HCV replicon) amounted to 280 nM.
`C/C=C/C[C@@H](C)[C@@H](O)[C@H]1C(=O)N[C@@H](CC)C(=O)N(C)[C@H](SCCCN2CCOCC2)C(=O)N(C)[C@@H](CC(C)(C)OC)C(=O)N[C@@H](C(C)C)C(=O)N(C)[C@@H](CC(C)C)C(=O)N[C@@H](C)C(=O)N[C@H](C)C(=O)N(C)[C@@H](CC(C)C)C(=O)N(C)[C@@H](CC(C)C)C(=O)N(C)[C@@H](C(C)C)C(=O)N1C` [[(R)-3-(N-Morpholino)propylthio-Sar]-3-[(γ-methoxy)-NMeLeu]-4-cyclosporin]: the half-maximal effective concentration (EC50) under setting [1] amounted to 60 nM.
`C/C=C/C[C@@H](C)[C@@H](O)[C@H]1C(=O)N[C@@H](CC)C(=O)N(C)[C@H](CSCC[C@H](CO)CCC)C(=O)N(C)[C@@H](CC(C)(C)O)C(=O)N[C@@H](C(C)C)C(=O)N(C)[C@@H](CC(C)C)C(=O)N[C@@H](C)C(=O)N[C@H](C)C(=O)N(C)[C@@H](CC(C)C)C(=O)N(C)[C@@H](CC(C)C)C(=O)N(C)[C@@H](C(C)C)C(=O)N1C`: the EC50 under setting [2] stood at 70 nM.
In the case of “(R)-2-(N-iso-Butyl-N-iso-propylamino)ethylthio-Sar]-3-cyclosporin”, the EC50 (Table 10, HCV replicon) came out at 480 nM.
`C/C=C/C[C@@H](C)[C@@H](O)[C@H]1C(=O)N[C@@H](CC)C(=O)N(C)[C@H](CSC/C(=C/CN(CC)CC)CCC)C(=O)N(C)[C@@H](CC(C)(C)O)C(=O)N[C@@H](C(C)C)C(=O)N(C)[C@@H](CC(C)C)C(=O)N[C@@H](C)C(=O)N[C@H](C)C(=O)N(C)[C@@H](CC(C)C)C(=O)N(C)[C@@H](CC(C)C)C(=O)N(C)[C@@H](C(C)C)C(=O)N1C`: under setting [2], the half-maximal effective concentration (EC50) was 60 nM.
Consider `C/C=C/C[C@@H](C)[C@@H](O)[C@H]1C(=O)N[C@@H](CC)C(=O)N(C)[C@H](SCCCN(CC)CC)C(=O)N(C)[C@@H](CC(C)(C)O)C(=O)N[C@@H](C(C)C)C(=O)N(C)[C@@H](CC(C)C)C(=O)N[C@@H](C)C(=O)N[C@H](C)C(=O)N(C)[C@@H](CC(C)C)C(=O)N(C)[C@@H](CC(C)C)C(=O)N(C)[C@@H](C(C)C)C(=O)N1C` [[(R)-3-(N,N Diethylamino)propylthio-Sar]-3-[(γ-hydroxy)-NMeLeu]-4-cyclosporin], for which the EC50 under setting [1] worked out at 70 nM.
On to `C/C=C/C[C@@H](C)[C@@H](O)[C@H]1C(=O)N[C@@H](CC)C(=O)N(C)[C@H](SCCN(CC)CC)C(=O)N(C)[C@@H](C(C)C)C(=O)N[C@@H](C(C)C)C(=O)N(C)[C@@H](CC(C)C)C(=O)N[C@@H](C)C(=O)N[C@H](C)C(=O)N(C)[C@@H](CC(C)C)C(=O)N(C)[C@@H](CC(C)C)C(=O)N(C)[C@@H](C(C)C)C(=O)N1C` [(R)-2-(N,N-Diethylamino)ethylthio-Sar]-3-[N-MeVal]-4-cyclosporin] (cyclo(A[dA][NMeL][NMeL][NMeV][MeBmt][Abu][X2][NMeV]V[NMeL])), for which the concentration giving a half-maximal response (EC50) (Table 10, HCV replicon) was found to be 40 nM.
As for `C/C=C/C[C@@H](C)[C@@H](O)[C@H]1C(=O)N[C@@H](CC)C(=O)N(C)[C@H](CSCCN(CC)CC)C(=O)N(C)[C@@H](CC(C)C)C(=O)N[C@@H](C(C)C)C(=O)N(C)[C@@H](CC(C)C)C(=O)N[C@@H](C)C(=O)N[C@H](C)C(=O)N(C)[C@@H](CC(C)C)C(=O)N(C)[C@@H](CC(C)C)C(=O)N(C)[C@@H](C(C)C)C(=O)N1C` (single isomer, unassigned) [Example 7, isomer B], the EC50 under setting [3] stood at 160 nM.
With `C/C=C/C[C@@H](C)[C@@H](O)[C@H]1C(=O)N[C@@H](CC)C(=O)N(C)[C@H](SCCCN(CC)CC)C(=O)N(C)[C@@H](C(C)C)C(=O)N[C@@H](C(C)C)C(=O)N(C)[C@@H](CC(C)C)C(=O)N[C@@H](C)C(=O)N[C@H](C)C(=O)N(C)[C@@H](CC(C)C)C(=O)N(C)[C@@H](CC(C)C)C(=O)N(C)[C@@H](C(C)C)C(=O)N1C` [[(R)-3-(N,N-Diethylamino)propylthio-Sar]-3-[N-MeVal]-4-cyclosporin] (cyclo(A[dA][NMeL][NMeL][NMeV][MeBmt][Abu][X1][NMeV]V[NMeL])), the concentration giving a half-maximal response (EC50) under setting [3] was 70 nM.
Turning to `C/C=C/C[C@@H](C)[C@@H](O)[C@H]1C(=O)N[C@@H](CC)C(=O)N(C)[C@H](SCCCN(CC)CC)C(=O)N(C)[C@@H](C(C)CC)C(=O)N[C@@H](C(C)C)C(=O)N(C)[C@@H](CC(C)C)C(=O)N[C@@H](C)C(=O)N[C@H](C)C(=O)N(C)[C@@H](CC(C)C)C(=O)N(C)[C@@H](CC(C)C)C(=O)N(C)[C@@H](C(C)C)C(=O)N1C` (stereo partly drawn) [[(R)-3-(N,N-Diethylamino)propylthio-Sar]-3-[NMeIle]-4-cyclosporin] (cyclo(A[dA][NMeL][NMeL][NMeV][MeBmt][Abu][X1][NMeIle(3ξ)]V[NMeL])), the concentration for a half-maximal effect (EC50) under setting [3] was determined as 80 nM.
As to `C/C=C/C[C@@H](C)[C@@H](O)[C@H]1C(=O)N[C@@H](CC)C(=O)N(C)[C@@H](SCCN(CC)CC)C(=O)N(C)[C@@H](C(C)C)C(=O)N[C@@H](C(C)C)C(=O)N(C)[C@@H](CC(C)C)C(=O)N[C@@H](C)C(=O)N[C@H](C)C(=O)N(C)[C@@H](CC(C)C)C(=O)N(C)[C@@H](CC(C)C)C(=O)N(C)[C@@H](C(C)C)C(=O)N1C` [(S)-2-(N,N-Diethylamino)ethylthio-Sar]-3-[N-MeVal]-4-cyclosporin] (cyclo(A[dA][NMeL][NMeL][NMeV][MeBmt][Abu][X7][NMeV]V[NMeL])), where the note is “Table 10, HCV replicon”, the EC50 worked out at 3660 nM.
For `C/C=C/C[C@@H](C)[C@@H](O)[C@H]1C(=O)N[C@@H](CC)C(=O)N(C)[C@H](CSCCCCC(C)(C)O)C(=O)N(C)[C@@H](CC(C)(C)O)C(=O)N[C@@H](C(C)C)C(=O)N(C)[C@@H](CC(C)C)C(=O)N[C@@H](C)C(=O)N[C@H](C)C(=O)N(C)[C@@H](CC(C)C)C(=O)N(C)[C@@H](CC(C)C)C(=O)N(C)[C@@H](C(C)C)C(=O)N1C`, the EC50 under setting [2] was 60 nM.
For `CC=CCC(C)C(O)C1C(=O)NC(CC)C(=O)N(C)C(SCCN(CC(C)C)C(C)C)C(=O)N(C)C(CC(C)C)C(=O)NC(C(C)C)C(=O)N(C)C(CC(C)C)C(=O)NC(C)C(=O)NC(C)C(=O)N(C)C(CC(C)C)C(=O)N(C)C(CC(C)C)C(=O)N(C)C(C(C)C)C(=O)N1C` [(S)-2-(N-iso-Butyl-N-iso-propylamino)ethylthio-Sar]-3-cyclosporin], the EC50 (Table 10, HCV replicon) is 4650 nM.
Turning to “(S)-2-(N,N-Diethylamino)ethylthio-Sar]-3-[N-MeIle]-4-cyclosporin”, the EC50 (Table 10, HCV replicon) stood at 1870 nM.
Turning to `C/C=C/C[C@@H](C)[C@@H](O)[C@H]1C(=O)N[C@@H](CC)C(=O)N(C)[C@H](CSCC[C@@H](CO)CCC)C(=O)N(C)[C@@H](CC(C)(C)O)C(=O)N[C@@H](C(C)C)C(=O)N(C)[C@@H](CC(C)C)C(=O)N[C@@H](C)C(=O)N[C@H](C)C(=O)N(C)[C@@H](CC(C)C)C(=O)N(C)[C@@H](CC(C)C)C(=O)N(C)[C@@H](C(C)C)C(=O)N1C`, under setting [2], the concentration for a half-maximal effect (EC50) is 70 nM.
Regarding `C/C=C/C[C@@H](C)[C@@H](O)[C@H]1C(=O)N[C@@H](CC)C(=O)N(C)[C@H](SCCN(CC)CC)C(=O)N(C)[C@@H](C(C)CC)C(=O)N[C@@H](C(C)C)C(=O)N(C)[C@@H](CC(C)C)C(=O)N[C@@H](C)C(=O)N[C@H](C)C(=O)N(C)[C@@H](CC(C)C)C(=O)N(C)[C@@H](CC(C)C)C(=O)N(C)[C@@H](C(C)C)C(=O)N1C` (stereo partly drawn) [[(R)-2-(N,N-Diethylamino)ethylthio-Sar]-3-[NMeIle]-4-cyclosporin] (cyclo(A[dA][NMeL][NMeL][NMeV][MeBmt][Abu][X2][NMeIle(3ξ)]V[NMeL])), the EC50 (Hepatitis C virus, Huh-7, Table 10, HCV replicon) was determined as 40 nM.
For the compound `C/C=C/C[C@@H](C)[C@@H](O)[C@H]1C(=O)N[C@@H](CC)C(=O)N(C)[C@H](CSCCN(C)C)C(=O)N(C)[C@@H](CC(C)C)C(=O)N[C@@H](C(C)C)C(=O)N(C)[C@@H](CC(C)C)C(=O)N[C@@H](C)C(=O)N[C@H](C)C(=O)N(C)[C@@H](CC(C)C)C(=O)N(C)[C@@H](CC(C)C)C(=O)N(C)[C@@H](C(C)C)C(=O)N1C` (single isomer, unassigned) [Example 6, isomer B], the EC50 under setting [3] came to 170 nM.
On to `CC=CCC(C)C(O)C1C(=O)NC(CC)C(=O)N(C)C(SCCCN2CCOCC2)C(=O)N(C)C(CC(C)(C)OCOCC)C(=O)NC(C(C)C)C(=O)N(C)C(CC(C)C)C(=O)NC(C)C(=O)NC(C)C(=O)N(C)C(CC(C)C)C(=O)N(C)C(CC(C)C)C(=O)N(C)C(C(C)C)C(=O)N1C` (centres unmarked) (cyclo([X4][Abu][X9][X13]V[NMeL]AA[NMeL][NMeL][NMeV]); configuration not given here), for which the EC50 (Table 11, HCV replicon) was found to be 160 nM.
On the same count and under the same terms, to `C/C=C/C[C@@H](C)[C@@H](O)[C@H]1C(=O)N[C@@H](CC)C(=O)N(C)[C@H](SCCCN2CCOCC2)C(=O)N(C)[C@@H](CC(C)(C)OCc2ccc(OC)cc2)C(=O)N[C@@H](C(C)C)C(=O)N(C)[C@@H](CC(C)C)C(=O)N[C@@H](C)C(=O)N[C@H](C)C(=O)N(C)[C@@H](CC(C)C)C(=O)N(C)[C@@H](CC(C)C)C(=O)N(C)[C@@H](C(C)C)C(=O)N1C` (cyclo(A[dA][NMeL][NMeL][NMeV][MeBmt][Abu][X3][X12]V[NMeL])) belongs 280 nM.
With `C/C=C/C[C@@H](C)[C@@H](O)[C@H]1C(=O)N[C@@H](CC)C(=O)N(C)[C@H](SCCCN2CCOCC2)C(=O)N(C)[C@@H](CC(C)(C)O)C(=O)N[C@@H](C(C)C)C(=O)N(C)[C@@H](CC(C)C)C(=O)N[C@@H](C)C(=O)N[C@H](C)C(=O)N(C)[C@@H](CC(C)C)C(=O)N(C)[C@@H](CC(C)C)C(=O)N(C)[C@@H](C(C)C)C(=O)N1C` [[(R)-3-(N-Morpholino)propylthio-Sar]-3-[(γ-hydroxy)-NMeLeu]-4-cyclosporin], the concentration giving a half-maximal response (EC50) under setting [1] was found to be 50 nM.

(Values after patent publication US20160039879A1, “NOVEL CYCLOSPORIN DERIVATIVES AND USES THEREOF” (S&T Global Inc., priority 2013, published 2016).)
